Laboratory results taken from patent US6444812B1, “Intermediate compounds in the preparation of farnnesyl transferase inhibiting 1,8-annelated quinolinone derivatives substituted with N-or C linked imidazoles” (Janssen Pharmaceutica N.V., priority 1997, dated 2002).
pIC50: −log10 of the molar value.

Key:
[1] = tested on: NIH 3T3 cells transformed by the T24 activated human H-ras gene; experiment: Ras-Transformed Cell Phenotype Reversion Assay; assay type: cell-based, mouse; conditions: cell counts after 72 hours proliferation
From the text: “Ras-Transformed Cell Phenotype Reversion Assay”
Insertion of activated oncogenes such as the mutant ras gene into mouse NIH 3T3 cells converts the cells to a transformed phenotype. The cells become tumorigenic, display anchorage independent growth in semi-solid medium and lose contact inhibition. Loss of contact inhibition produces cell cultures which no longer form uniform monolayers. Rather, the cells pile up into multicellular nodules and grow to very high saturation densities in plastic tissue culture dishes. Agents such as protein farnesyl transferase inhibitors which revert the ras transformed phenotype restore the uniform monolayer growth pattern to cells in culture. This reversion is easily monitored by counting the number of cells in tissue culture plates. Transformed cells will achieve higher cell numbers than cells which have reverted to an untransformed phenotype. Compounds which revert the transformed phenotype should produce antitumor effects in tumors bearing ras gene mutations.
Compounds are screened in tissue culture in NIH 3T3 cells transformed by the T24 activated human H-ras gene. Cells are seeded at an initial density of 200,000 cells per well (9.6 cm^2 surface area) in six-well cluster tissue culture plates. Test compounds are immediately added to 3.0 ml cell growth medium in a 3.0 μl volume of DMSO, with a final concentration of DMSO in the cell growth medium of 0.1%. The test compounds are run at concentrations of 5, 10, 50, 100, and 500 nM along with a DMSO treated vehicle control. […] Then the cells are detached in 1.0 ml trypsin-EDTA cell dissociation medium and counted on a Coulter particle counter.
Cell numbers expressed as cells per well are measured using a Coulter Particle Counter.
All cell counts were corrected for the initial cell input density by subtracting 200,000.
Control cell counts=[cell counts from cells incubated with DMSO vehicle−200,000]
Test compound cell counts=[cell counts from cells incubated with test compound−200,000]. [formula]

[2] = tested on: T24 activated human H-ras gene transformed NIH 3T3 fibroblast cells (T24 cells); experiment: Farnesyl Protein Transferase Inhibitor Secondary Tumor Model; assay type: in vivo, Nude mice; conditions: po, 15 days of treatment
From the text: “Farnesyl Protein Transferase Inhibitor Secondary Tumor Model”
The enzyme farnesyl protein transferase catalyzes the covalent attachment of a farnesyl moiety derived from farnesyl pyrophosphate to the oncogene product p21^ras. This directs p21^ras to attach to plasma membranes. Once attached to plasma membranes, mutant or oncogenic forms of p21^ras will provide a signal for the transformation and uncontrolled growth of malignant tumor cells. Therefore, inhibitors of protein farnesyltransferase will prevent the membrane attachment of p21^ras and inhibit growth of ras-transformed tumors.
Nude mice are inoculated with 1×10^6 of T24 activated human H-ras gene transformed NIH 3T3 fibroblast cells (T24 cells), subcutaneously in the inguinal region. After three days to allow tumors to become established, treatment with test compounds is begun via the oral route. The test compounds are dissolved in a 20% β-cyclodextrin in 0.1 N HCl solution and administered orally as 0.1 ml of compound solution per 10 g mouse body weight. Routinely used doses are 6.25, 12.5 and 25 mg/kg. Body weights and tumor sizes are monitored during the ensuing 15 days of treatment. At the end of treatment, animals are sacrificed and tumors are weighed.
The “mean vehicle treated tumor weight” is defined as the mean tumor weight from 10 to 15 mice […].
The “mean tumor weight” is defined as the mean tumor weight from 10 to 15 mice […]. [formula]

[3] = target: T1, Human farnesyl protein transferase (Homo sapiens, UniProt P49354+P49356); experiment: In Vitro Assay for Inhibition of Farnesyl Protein Transferase (scintillation proximity assay); assay type: biochemical; conditions: concentration of test compound producing 50% inhibition of enzyme activity; 60 min at 37° C.
T1 construct: grown as monolayer cell cultures were used as a source of human enzyme; endogenous in cells; host or cells: KHOS (Kirsten virus transformed human osteosarcoma) cells from ATCC, grown as solid tumors in nude mice or as monolayer cultures; The enzyme was partially purified by a 30-50% ammonium sulfate cut and Q Fast Flow Sepharose
Experimental: “In Vitro Assay for Inhibition of Farnesyl Protein Transferase”
Human farnesyl protein transferase was prepared essentially as described (Y. Reiss et al., Methods: A Companion to Methods in Enzymology, vol. 1, 241-245, 1990). Kirsten virus transformed human osteosarcoma (KHOS) cells (American Type Culture Collection, Rockville, Md., USA) grown as solid tumors in nude mice or grown as monolayer cell cultures were used as a source of human enzyme. Briefly, cells or tumors were homogenized in buffer containing 50 mM Tris, 1 mM EDTA, 1 mM EGTA and 0.2 mM phenylmethylsulfonylfluoride (pH 7.5). The homogenates were centrifuged 28,000×g for 60 min and the supernatants collected. […] Fractions containing 4 to 5 ml volumes of column eluate were collected and analyzed for farnesyl protein transferase activity. […]
The activity of farnesyl protein transferase was measured using the Farnesyl Transferase [^3H] […] The amount of [^3H]-farnesyl-(Cys)-biotin lamin B peptide synthesized in the presence or absence of test compounds was quantified as cpm by counting on a Wallac Model 1480 Microbeta Liquid Scintillation Counter. […] The protein farnesyl transferase activity observed in the presence of test compound was normalized to farnesyl transferase activity in the presence of 10% DMSO and expressed as percent inhibition. […]

Row | melting point | Structure (SMILES) | pIC50 ([1]; NIH3T3) | further results
1 | 226 °C | Cn1cncc1C(O)(c1ccc(Cl)cc1)c1cc2nnn3c(=O)cc(-c4cccc(Cl)c4)c(c1)c23 (racemic) [Compound 35, (±)-6-(3-chlorophenyl)-8-[(4-chlorophenyl)hydroxy(1-methyl-1H-imidazol-5-yl)methyl]-4H-1,2,3-triazolo[4,5,1-ij]quinolin-4-one] | < 6.30 | 
2 |  | Cn1cncc1C(O)(c1ccc(Cl)cc1)c1cc2nc(-c3ccccc3)n3c(=O)cc(-c4cccc(Cl)c4)c(c1)c23 (racemic) [Compound 31, (±)-6-(3-chlorophenyl)-8-[(4-chlorophenyl)hydroxy(1-methyl-1H-imidazol-5-yl)methyl]-2-phenyl-4H-imidazo[4,5,1-ij]quinolin-4-one] | < 6.30 | 
3 |  | Cn1cncc1C(N)(c1ccc(Cl)cc1)c1cc2c3c(c1)c(-c1cccc(Cl)c1)cc(=O)n3CC2 (racemic) [Compound 8, (±)-8-[amino(4-chlorophenyl)(1-methyl-1H-imidazol-5-yl)methyl]-6-(3-chlorophenyl)-1,2-dihydro-4H-pyrrolo[3,2,1-ij]quinolin-4-one] | 8.19 | % reduction final tumor weight ([2]; 6.25 mg/kg bid): 41%; % reduction final tumor weight ([2]; 12.25 mg/kg bid): 44%; % reduction final tumor weight ([2]; 25 mg/kg bid): 49%
4 |  | Cn1cncc1C(N)(c1ccc(Cl)cc1)c1cc2c3c(c1)c(-c1cccc(Cl)c1)cc(=O)n3CC2 (centres unmarked) [Compound 10, (B)-8-[amino(4-chlorophenyl)(1-methyl-1H-imidazol-5-yl)methyl]-6-(3-chlorophenyl)-1,2-dihydro-4H-pyrrolo[3,2,1-ij]quinolin-4-on] |  | pIC50 [1]: 8.49
5 |  | O=c1cc(-c2cccc(Cl)c2)c2cc(C(c3ccc(Cl)cc3)n3ccnc3)cc3c2n1CC3 (centres unmarked) [Compound 38] |  | pIC50 [3]: 7.82
6 | 213.6 °C | Cn1cncc1C(O)(c1ccc(Cl)cc1)c1cc2c3c(c1)c(-c1cccc(Cl)c1)cc(=O)n3CC2 (racemic) [Compound 5, (±)-6-(3-chlorophenyl)-8-[(4-chlorophenyl)hydroxy(1-methyl-1H-imidazol-5-yl)methyl]-1,2-dihydro-4H-pyrrolo[3,2,1-ij]quinolin-4-one] | 8.11 | 
7 |  | Cn1cncc1C(O)(c1ccc(Cl)cc1)c1cc2c3c(c1)c(-c1cccc(Cl)c1)cc(=O)n3CO2 (racemic) [Compound 15, (±)-6-(3-chlorophenyl)-8-[(4-chlorophenyl)hydroxy(1-methyl-1H-imidazol-5-yl)methyl]-2H,4H-oxazolo[5,4,3-ij]quinolin-4-one] | 7.32 | 
8 |  | O=c1cc(-c2cccc(Cl)c2)c2cc(C(c3ccc(Cl)cc3)n3ccnc3)cc3c2n1CCC3 (racemic) [Compound 36, (±)-7-(3-chlorophenyl)-9-[(4-chlorophenyl)-1H-imidazol-1-ylmethyl]-2,3-dihydro-1H,5H-benzo[ij]quinolizin-5-one] |  | pIC50 [3]: 7.68
9 |  | Cn1cncc1C(c1ccc(Cl)cc1)c1cc2c3c(c1)c(-c1cccc(Cl)c1)cc(=S)n3CC2 (racemic) [Compound 27, (±)-6-(3-chlorophenyl)-8-[(4-chlorophenyl)(1-methyl-1H-imidazol-5-yl)methyl]-1,2-dihydro-4H-pyrrolo[3,2,1-ij]quinoline-4-thione] | 7.43 | 
10 |  | Cn1cncc1C(O)(c1ccc(Cl)cc1)c1cc2[nH]c(=O)n3c(=O)cc(-c4cccc(Cl)c4)c(c1)c23 (racemic) [Compound 34, (±)-6-(3-chlorophenyl)-8-[(4-chlorophenyl)hydroxy(1-methyl-1H-imidzol-5-yl)methyl]-4H-imidazo[4,5,1-ij]quinoline-2,4(1H)-dione] |  | pIC50 [1]: < 6.30
11 | 93.6 °C | O=C1CC(c2cccc(Cl)c2)c2cc(C(c3ccc(Cl)cc3)n3ccnc3)cc3c2N1CCC3 (racemic) [Compound 37, (±)-7-(3-chlorophenyl)-9-[(4-chlorophenyl)-1H-imidazol-1-ylmethyl]-2,3,6,7-tetrahydro-1H,5H-benzo[ij]quinolizin-5-one] |  | 
12 | 170 °C | Cc1nc2cc(C(O)(c3ccc(Cl)cc3)c3cncn3C)cc3c(-c4cccc(Cl)c4)cc(=O)n1c23 (racemic) [Compound 30, (±)-6-(3-chlorophenyl)-8-[(4-chlorophenyl)hydroxy(1-methyl-1H-imidazol-5-yl)methyl]-2-methyl-4H-imidazo[4,5,1-ij]quinolin-4-one] | 6.43 | 
13 |  | Cn1cncc1C(c1ccc(Cl)cc1)c1cc2c3c(c1)c(-c1cccc(Cl)c1)cc(=O)n3CC2 (racemic) [Compound 6, (±)-6-(3-chlorophenyl)-8-[(4-chlorophenyl)(1-methyl-1H-imidazol-5-yl)methyl]-1,2-dihydro-4H-pyrrolo[3,2,1-ij]quinolin-4-one monohydrate] | 7.49 | 

Row | Structure (SMILES) | melting point | pIC50 ([1]; NIH3T3) | further results
14 | Cn1cncc1C(c1ccc(Cl)cc1)c1cc2c3c(c1)c(-c1cccc(Cl)c1)cc(=O)n3CC2.O (racemic) (hydrate or solvate) [Compound 6, (±)-6-(3-chlorophenyl)-8-[(4-chlorophenyl)(1-methyl-1H-imidazol-5-yl)methyl]-1,2-dihydro-4H-pyrrolo[3,2,1-ij]quinolin-4-one monohydrate] | 147 °C |  | 
